Test results from ChEMBL document CHEMBL3045904, “Synthesis, AM1 calculation, and biological studies of thiopyran-4-one and their azine derivatives” (2007).
Converted amounts (≈) assume the structure as drawn. The source made the active and inactive calls. No cut-off for these calls is given here.

Assays:
Assay type in all cases: functional
[1] = tested on: Pseudomonas aeruginosa; experiment: Antibacterial activity against Pseudomonas aeruginosa after 24 hr by twofold serial dilution method
[2] = tested on: Escherichia coli; experiment: Antibacterial activity against Escherichia coli after 24 hr by two-fold serial dilution method
[3] = tested on: Staphylococcus aureus; experiment: Antibacterial activity against Staphylococcus aureus after 24 hr by two-fold serial dilution method
[4] = tested on: Aspergillus niger; experiment: Antifungal activity against Aspergillus niger after 72 to 96 hr by two-fold serial dilution method
[5] = tested on: Candida; experiment: Antifungal activity against Candida-6 after 72 to 96 hr by two-fold serial dilution method
[6] = tested on: Enterococcus faecalis; experiment: Antibacterial activity against Enterococcus faecalis after 24 hr by two-fold serial dilution method
[7] = tested on: Aspergillus flavus; experiment: Antifungal activity against Aspergillus flavus after 72 to 96 hr by two-fold serial dilution method
[8] = tested on: Candida; experiment: Antifungal activity against Candida-51 after 72 to 96 hr by two-fold serial dilution method
[9] = tested on: Bacillus subtilis; experiment: Antibacterial activity against Bacillus subtilis after 24 hr by two-fold serial dilution method

Compound	MIC [1]	MIC [2]	MIC [3] [mg/L]	MIC [4]	MIC [5] [mg/L]	MIC [6]	MIC [7] [mg/L]	MIC [8]	MIC [9] [mg/L]
Oc1ccccc1/C=N/N=C1\C[C@@H](c2ccccc2)S[C@@H](c2ccccc2)C1 (relative stereo)	25 mg/L (≈ 64.7 µM)	12.5 mg/L (≈ 32.3 µM)	25 (≈ 64.7 µM)	25 mg/L (≈ 64.7 µM)	12.5 (≈ 32.3 µM)	25 mg/L (≈ 64.7 µM)	50 (≈ 129 µM)	12.5 mg/L (≈ 32.3 µM)	6.25 (≈ 16.2 µM)
O=[N+]([O-])c1ccccc1/C=N/N=C1\C[C@@H](c2ccccc2)S[C@@H](c2ccccc2)C1 (relative stereo)	50 mg/L (≈ 120 µM)	100 mg/L (≈ 241 µM)	25 (≈ 60.2 µM)	100 mg/L (≈ 241 µM)	50 (≈ 120 µM)	50 mg/L (≈ 120 µM)	100 (≈ 241 µM)	25 mg/L (≈ 60.2 µM)	25 (≈ 60.2 µM)
C[C@@H]1[C@H](O)[C@@H](C)/C=C/C=C/C=C/C=C/C=C/C=C/C=C/[C@H](O[C@@H]2O[C@H](C)[C@@H](O)[C@H](N)[C@@H]2O)C[C@@H]2O[C@](O)(C[C@@H](O)C[C@@H](O)[C@H](O)CC[C@@H](O)C[C@@H](O)CC(=O)O[C@H]1C)C[C@H](O)[C@H]2C(=O)O [AMPHOTERICIN B]				50 mg/L (≈ 54.1 µM)	25 (≈ 27.1 µM)		50 (≈ 54.1 µM)	25 mg/L (≈ 27.1 µM)	
COc1ccc(/C=N/N=C2\C[C@@H](c3ccccc3)S[C@@H](c3ccccc3)C2)cc1 (relative stereo)	50 mg/L (≈ 125 µM)	12.5 mg/L (≈ 31.2 µM)	25 (≈ 62.4 µM)	50 mg/L (≈ 125 µM)	12.5 (≈ 31.2 µM)	25 mg/L (≈ 62.4 µM)	100 (≈ 250 µM)	12.5 mg/L (≈ 31.2 µM)	6.25 (≈ 15.6 µM)
CN[C@@H]1[C@H](O[C@H]2[C@H](O[C@H]3[C@H](O)[C@@H](O)[C@H](N=C(N)N)[C@@H](O)[C@@H]3N=C(N)N)O[C@@H](C)[C@]2(O)C=O)O[C@@H](CO)[C@H](O)[C@H]1O [STREPTOMYCIN]	25 mg/L (≈ 43 µM)	12.5 mg/L (≈ 21.5 µM)	25 (≈ 43 µM)			50 mg/L (≈ 86 µM)			12.5 (≈ 21.5 µM)
N/N=C1\C[C@@H](c2ccccc2)S[C@@H](c2ccccc2)C1 (relative stereo)	100 mg/L (≈ 354 µM)	50 mg/L (≈ 177 µM)	100 (≈ 354 µM)	100 mg/L (≈ 354 µM)	50 (≈ 177 µM)	100 mg/L (≈ 354 µM)	100 (≈ 354 µM)	100 mg/L (≈ 354 µM)	100 (≈ 354 µM)
O=C1C[C@@H](c2ccccc2)S[C@@H](c2ccccc2)C1	inactive	inactive	100 (≈ 373 µM)	inactive	100 (≈ 373 µM)	inactive	100 (≈ 373 µM)	inactive	100 (≈ 373 µM)
O/N=C1\C[C@@H](c2ccccc2)S[C@@H](c2ccccc2)C1	inactive	inactive	100 (≈ 353 µM)	inactive	100 (≈ 353 µM)	inactive	100 (≈ 353 µM)	inactive	100 (≈ 353 µM)
c1ccc([C@@H]2C/C(=N\N=C3/C[C@@H](c4ccccc4)S[C@@H](c4ccccc4)C3)C[C@H](c3ccccc3)S2)cc1	50 mg/L (≈ 93.8 µM)	100 mg/L (≈ 188 µM)	25 (≈ 46.9 µM)	50 mg/L (≈ 93.8 µM)	100 (≈ 188 µM)	100 mg/L (≈ 188 µM)	100 (≈ 188 µM)	50 mg/L (≈ 93.8 µM)	50 (≈ 93.8 µM)
